Patent US6737383B1, “Herbicidal oxadiazolidines” (priority 1999, dated 2004)

Tests used:
[1] = tested on: cocklebur; assay: Test B pre/postemergence cocklebur; format: in vivo, Xanthium strumarium
Summary of the method: (§1)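 Herbicidal effect was estimated by eye on a ten-point control scale after plants spent twelve to sixteen days in a greenhouse following soil or foliar treatment. Foliar sprays targeted plants at one to four leaves; all doses were formulated in a non-phytotoxic solvent with surfactant.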

[2] = tested on: smallflower flatsedge; assay: Test B flood test smallflower flatsedge; format: in vivo, Cyperus difformis
Summary of the method: (§2)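 Each value is a visual injury score relative to controls, with 10 meaning complete control and 0 no effect. Evaluation took place twelve to sixteen days after the 2-leaf-stage plants were treated and kept in the greenhouse.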

[3] = tested on: morningglory; assay: Test B pre/postemergence morningglory; format: in vivo, Ipomoea hederacea
Summary of the method: as §1

[4] = tested on: corn; assay: Test B pre/postemergence corn; format: in vivo, Zea mays
Summary of the method: as §1

[5] = tested on: crabgrass; assay: Test B pre/postemergence crabgrass; format: in vivo, Digitaria sanguinalis
Summary of the method: as §1

[6] = tested on: pigweed; assay: Test B pre/postemergence pigweed; format: in vivo, Amaranthus retroflexus
Summary of the method: as §1

[7] = tested on: duck salad; assay: Test B flood test duck salad; format: in vivo, Heteranthera limosa
Summary of the method: as §2

[8] = tested on: rape; assay: Test B pre/postemergence rape; format: in vivo, Brassica napus
Summary of the method: as §1

[9] = tested on: wheat; assay: Test B pre/postemergence wheat; format: in vivo, Triticum aestivum
Summary of the method: as §1

[10] = tested on: wild oat; assay: Test B pre/postemergence wild oat; format: in vivo, Avena fatua
Summary of the method: as §1

[11] = tested on: purple nutsedge; assay: Test B pre/postemergence purple nutsedge; format: in vivo, Cyperus rotundus
Summary of the method: as §1

[12] = tested on: giant foxtail; assay: Test B pre/postemergence giant foxtail; format: in vivo, Setaria faberii
Summary of the method: as §1

[13] = tested on: sugar beet; assay: Test B pre/postemergence sugar beet; format: in vivo, Beta vulgaris
Summary of the method: as §1

[14] = tested on: bamyardgrass; assay: Test B flood test barnyardgrass; format: in vivo, Echinochloa crus-galli
Summary of the method: as §2

[15] = tested on: surinam grass; assay: Test B pre/postemergence surinam grass; format: in vivo, Brachiaria decumbens
Summary of the method: as §1

[16] = tested on: rice; assay: Test B flood test rice; format: in vivo, Oryza sativa
Summary of the method: as §2

[17] = Postemergence, Rate 125 g/ha, scale of 0 to 10 where 0 is no effect and 10 is complete control
[18] = Preemergence, Rate 62 g/ha, scale of 0 to 10 where 0 is no effect and 10 is complete control
[19] = Preemergence, Rate 125 g/ha, 0 is no effect, 10 is complete control
[20] = Preemergence, Rate 250 g/ha, scale 0 to 10, 0 is no effect, 10 is complete control
[21] = Preemergence, Rate 500 g/ha, scale 0 to 10 (0 no effect, 10 complete control)
[22] = Rate 62 g/ha, Postemergence, scale of 0 to 10 where 0 is no effect and 10 is complete control
[23] = Rate 250 g/ha, Postemergence, scale 0 to 10, 0 is no effect, 10 is complete control
[24] = Rate 500 g/ha, Postemergence, scale 0 to 10
[25] = Postemergence (flood test species), Rate 125 g/ha, scale of 0 to 10 where 0 is no effect and 10 is complete control
[26] = Rate 62 g/ha, Postemergence section, flood test species, scale of 0 to 10 where 0 is no effect and 10 is complete control
[27] = Rate 250 g/ha, Postemergence (flood test), scale 0 to 10, 0 is no effect, 10 is complete control
[28] = Rate 500 g/ha, listed under Postemergence (flood test species), scale 0 to 10

Cc1nsc(C)c1-n1c(=O)on(C(=O)N(c2ccc(Cl)cc2)C(C)C)c1=O [Compound 159]
Cocklebur plant response rating [1, 17]: 0 | Cocklebur plant response rating [1, 18]: 0 | Cocklebur plant response rating (0 to 10 scale) [1, 19]: 0 | Cocklebur plant response rating [1, 20]: 0 | Cocklebur plant response rating [1, 21]: 0 | Cocklebur plant response rating [1, 22]: 0 | Plant response rating, Cocklebur [1, 23]: 0 | Cocklebur plant response rating [1, 24]: 0 | S. Flatsedge plant response rating [2, 25]: 0 | S. Flatsedge plant response rating [2, 26]: 0 | Plant response rating, S. Flatsedge [2, 27]: 0 | S. Flatsedge plant response rating [2, 28]: 0 | Morningglory plant response rating [3, 17]: 2 | Morningglory plant response rating [3, 18]: 0 | Morningglory plant response rating (0 to 10 scale) [3, 19]: 0 | Morningglory plant response rating [3, 20]: 0 | Morningglory plant response rating [3, 21]: 0 | Morningglory plant response rating [3, 22]: 0 | Plant response rating, Morningglory [3, 23]: 3 | Morningglory plant response rating [3, 24]: 4 | Corn plant response rating [4, 17]: 0 | Corn plant response rating [4, 18]: 0 | Corn plant response rating (0 to 10 scale) [4, 19]: 0 | Corn plant response rating [4, 20]: 0 | Corn plant response rating [4, 21]: 0 | Corn plant response rating [4, 22]: 0 | Plant response rating, Corn [4, 23]: 0 | Corn plant response rating [4, 24]: 0 | Crabgrass plant response rating [5, 17]: 0 | Crabgrass plant response rating [5, 18]: 0 | Crabgrass plant response rating (0 to 10 scale) [5, 19]: 0 | Crabgrass plant response rating [5, 20]: 0 | Crabgrass plant response rating [5, 21]: 0 | Crabgrass plant response rating [5, 22]: 0 | Plant response rating, Crabgrass [5, 23]: 0 | Crabgrass plant response rating [5, 24]: 0 | Redroot pigweed plant response rating [6, 17]: 0 | Redroot pigweed plant response rating [6, 18]: 0 | Redroot pigweed plant response rating (0 to 10 scale) [6, 19]: 0 | Redroot pigweed plant response rating [6, 20]: 0 | Redroot pigweed plant response rating [6, 21]: 0 | Redroot pigweed plant response rating [6, 22]: 0 | Plant response rating, Redroot pigweed [6, 23]: 0 | Redroot pigweed plant response rating [6, 24]: 0 | Ducksalad plant response rating [7, 25]: 0 | Ducksalad plant response rating [7, 26]: 0 | Plant response rating, Ducksalad [7, 27]: 0 | Ducksalad plant response rating [7, 28]: 0 | Rape plant response rating [8, 17]: 0 | Rape plant response rating [8, 18]: 0 | Rape plant response rating (0 to 10 scale) [8, 19]: 0 | Rape plant response rating [8, 20]: 0 | Rape plant response rating [8, 21]: 0 | Rape plant response rating [8, 22]: 0 | Plant response rating, Rape [8, 23]: 0 | Rape plant response rating [8, 24]: 0 | Wheat plant response rating [9, 18]: 0 | Wheat plant response rating (0 to 10 scale) [9, 19]: 0 | Wheat plant response rating [9, 20]: 0 | Wheat plant response rating [9, 21]: 0 | Plant response rating, Wheat [9, 23]: 0 | Wheat plant response rating [9, 24]: 0 | Wild oats plant response rating [10, 18]: 0 | Wild oats plant response rating (0 to 10 scale) [10, 19]: 0 | Wild oats plant response rating [10, 20]: 0 | Wild oats plant response rating [10, 21]: 0 | Plant response rating, Wild oats [10, 23]: 0 | Wild oats plant response rating [10, 24]: 0 | Nutsedge plant response rating [11, 17]: 0 | Nutsedge plant response rating [11, 18]: 0 | Nutsedge plant response rating (0 to 10 scale) [11, 19]: 0 | Nutsedge plant response rating [11, 20]: 0 | Nutsedge plant response rating [11, 21]: 0 | Nutsedge plant response rating [11, 22]: 0 | Plant response rating, Nutsedge [11, 23]: 0 | Nutsedge plant response rating [11, 24]: 0 | Giant foxtail plant response rating [12, 17]: 0 | Giant foxtail plant response rating [12, 18]: 0 | Giant foxtail plant response rating (0 to 10 scale) [12, 19]: 0 | Giant foxtail plant response rating [12, 20]: 0 | Giant foxtail plant response rating [12, 21]: 0 | Giant foxtail plant response rating [12, 22]: 0 | Plant response rating, Giant foxtail [12, 23]: 0 | Giant foxtail plant response rating [12, 24]: 0 | Sugarbeets plant response rating [13, 17]: 0 | Sugarbeets plant response rating [13, 18]: 0 | Sugarbeets plant response rating (0 to 10 scale) [13, 19]: 0 | Sugarbeets plant response rating [13, 20]: 0 | Sugarbeets plant response rating [13, 21]: 0 | Sugarbeets plant response rating [13, 22]: 0 | Plant response rating, Sugarbeets [13, 23]: 0 | Sugarbeets plant response rating [13, 24]: 0 | Barnyardgrass plant response rating [14, 25]: 0 | Barnyardgrass plant response rating [14, 26]: 0 | Plant response rating, Barnyardgrass [14, 27]: 0 | Barnyardgrass plant response rating [14, 28]: 0 | B. signalgrass plant response rating [15, 17]: 0 | B. signalgrass plant response rating [15, 18]: 0 | B. signalgrass plant response rating (0 to 10 scale) [15, 19]: 0 | B. signalgrass plant response rating [15, 20]: 0 | B. signalgrass plant response rating [15, 21]: 0 | B. signalgrass plant response rating [15, 22]: 0 | Plant response rating, B. signalgrass [15, 23]: 0 | B. signalgrass plant response rating ([15]; Rate 500 g/ha, Postemergence, scale 0 to 10, 0 no effect, 10 complete control): 0 | Rice plant response rating [16, 25]: 0 | Rice plant response rating [16, 26]: 0 | Plant response rating, Rice [16, 27]: 0 | Rice plant response rating [16, 28]: 0
